Experimental data: PubChem BioAssay AID588782 (Southern Research Specialized Biocontainment Screening …, 2011)
Where “and” joins values, the source holds several entries; their conditions need not be identical. Equal entries are not always repeated. Calls of active or inactive are those of the source.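 Rule for the calls: active = virus-caused cell damage raised over twofold versus untreated cells in three repeats, without toxicity at overlapping doses; inactive = the rest.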

System: PC3 cells, HSV G47-delta CPE, CellTiter-Glo, 96 h
Assay: enhancers of oncolytic HSV cytopathic effect, confirmation, PC3 cells, CellTiter-Glo, secondary (AID 588782);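 for CPE increase: percent rise in virus-caused cell damage over infected cultures given no drug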
Details: for outcome / CPE increase: at 10 µM; for CC50: measured here: PC3 cytotoxicity; for CPE increase: stronger effect = higher value

COc1cc(C(=O)OCCN2CCOCC2)cc(OC)c1OC
outcome: inactive
CC50: > 100 µM

COc1cc(C(=O)OCCCN2CCCN(C(=O)OC(C)(C)C)CC2)cc(OC)c1OC
outcome: inactive
CC50: > 100 µM

COc1cc(OC)cc(C(=O)OCCN2CCN(CCOC(=O)c3cc(OC)cc(OC)c3)CC2)c1
outcome: inactive
CC50: > 100 µM

COc1cc(C(=O)OCCN2CCCC2)cc(OC)c1OC
outcome: inactive
CC50: > 100 µM

COc1cc(OC)cc(C(=O)OCCCN2CCN(CCCOC(=O)c3cc(OC)cc(OC)c3)CC2)c1
outcome: inactive
CC50: > 94 µM

O=C(/C=C/c1ccc2c(c1)OCO2)N1CCCN(C(=O)/C=C/c2ccc3c(c2)OCO3)CC1
outcome: inactive
CC50: > 100 µM

NCCCN1CCCN(CCCN)CC1
outcome: inactive
CC50: > 100 µM

COc1cc(OC)cc(C(=O)OCCCN2CCN(C)CC2)c1
outcome: inactive
CC50: > 100 µM

COc1cc(-c2cn(CCCN3CCCN(CCCn4cc(-c5cc(OC)c(OC)c(OC)c5)nn4)CC3)nn2)cc(OC)c1OC
outcome: inactive
CC50: > 100 µM

COc1cc(C(=O)OCCCN2CCCN(C(C)=O)CC2)cc(OC)c1OC
outcome: inactive
CC50: > 100 µM

COc1cc(OC)cc(C(=O)OCCCN2CCCN(Cc3ccccc3)CC2)c1
outcome: inactive
CC50: > 100 µM

CNCCN(C)CCOC(=O)c1cc(OC)c(OC)c(OC)c1
outcome: inactive
CC50: > 100 µM

COc1cc(OC)cc(C(=O)OCCN2CCCC2)c1
outcome: inactive
CC50: > 100 µM

COc1cc(OC)cc(C(=O)OCCN2CCCN(CCOC(=O)c3cc(OC)cc(OC)c3)CC2)c1
outcome: inactive
CC50: > 100 µM

COc1cc(CN2CCCN(Cc3cc(OC)c(OC)c(OC)c3)CC2)cc(OC)c1OC
outcome: inactive
CC50: > 100 µM

COc1ccc(C(=O)OCCN2CCN(CCOC(=O)c3ccc(OC)cc3)CC2)cc1
outcome: inactive
CC50: > 100 µM

COc1ccc(C(=O)OCCCNCCNCCCOC(=O)c2ccc(OC)cc2)cc1
outcome: inactive
CPE increase: 19.8% (inactive)
CC50: > 93 µM and 21.7 µM

COc1cc(C(=O)OCCCN2CCCNCC2)cc(OC)c1OC
outcome: inactive
CC50: > 100 µM

COc1cc(C(=O)OCCCN2CCCN(CCOC(=O)c3cc(OC)c(OC)c(OC)c3)CC2)cc(OC)c1OC
outcome: inactive
CC50: > 100 µM

CN1CCCN(CCCOC(=O)c2ccc(F)cc2)CC1
outcome: inactive
CC50: > 100 µM

COc1cc(C(=O)OCCCN2CCN(CCCOC(=O)c3cc(OC)c(OC)c(OC)c3)CC2)cc(OC)c1OC
outcome: inactive
CC50: > 100 µM

COc1cc(C(=O)OCCN2CCCN(CCOC(=O)c3cc(OC)c(OC)c(OC)c3)CC2)cc(OC)c1OC
outcome: inactive
CC50: > 100 µM

COc1ccc(C(=O)OCCN2CCN(C)CC2)cc1
outcome: inactive
CC50: > 100 µM

COc1ccc(C(=O)NCCCN2CCCN(C)CC2)cc1
outcome: inactive
CC50: > 100 µM

COc1ccc(C(=O)OCCCN2CCN(CCCOC(=O)c3ccc(OC)cc3)CC2)cc1
outcome: inactive
CC50: > 100 µM

COc1cc(COCCCN2CCCN(CCCOCc3cc(OC)c(OC)c(OC)c3)CC2)cc(OC)c1OC
outcome: inactive
CC50: > 100 µM

COc1ccc(C(=O)OCCCN2CCOCC2)cc1
CPE increase: 16.9% (inactive)
CC50: > 100 µM

COc1cc(C(=O)OCCCN2CCCN(Cc3ccccc3)CC2)cc(OC)c1OC
outcome: inactive
CC50: > 100 µM

COc1cc(OC)cc(C(=O)OCCN2CCN(C)CC2)c1
outcome: inactive
CC50: > 100 µM

COc1ccc(C(=O)OCCCN2CCCN(CCCOC(=O)c3ccc(OC)cc3)CC2)cc1
outcome: inactive
CC50: > 93 µM

COc1cc(C(=O)OCCCN(C)CCN(C)CCCOC(=O)c2cc(OC)c(OC)c(OC)c2)cc(OC)c1OC
outcome: inactive
CC50: > 100 µM

COc1cc(C(=O)OCCCN2CCCC2)cc(OC)c1OC
outcome: inactive
CC50: > 100 µM

O=C(OCCCN1CCN(CCCOC(=O)c2ccccc2)CC1)c1ccccc1
outcome: inactive
CC50: > 100 µM

CNCCN(C)CCCOC(=O)c1ccc(OC)cc1
outcome: inactive
CC50: > 100 µM

COc1cc(C(=O)OCCN2CCN(CCOC(=O)c3cc(OC)c(OC)c(OC)c3)CC2)cc(OC)c1OC
outcome: inactive
CC50: > 100 µM

COc1ccc(C(=O)OCCCN2CCCC2)cc1
outcome: inactive
CC50: > 100 µM

CC(=O)NCCCN1CCCN(CCCNC(C)=O)CC1
outcome: inactive
CC50: > 100 µM

COc1cccc(C(=O)NCCCN2CCN(CCCNC(=O)c3cccc(OC)c3)CC2)c1
outcome: inactive
CC50: > 100 µM

O=C(CCN1CCCN(CCC(=O)Nc2ccccc2)CC1)Nc1ccccc1
outcome: inactive
CC50: > 100 µM

COc1cc(C(=O)OCCCN2CCCN(CCCOC(=O)c3cc(OC)c(OC)c(OC)c3)CC2)cc(OC)c1OC
outcome: inactive
CC50: > 100 µM

COc1cc(OC)cc(C(=O)OCCN2CCCN(C)CC2)c1
outcome: inactive
CC50: > 100 µM

COc1cc(C(=O)OCCCN2CCCN(C)CC2)cc(OC)c1OC
outcome: inactive
CC50: > 100 µM

COc1cc(OC)cc(C(=O)OCCCN2CCCN(C)CC2)c1
outcome: inactive
CC50: > 100 µM

O=C(OCCCN1CCCN(CCCOC(=O)c2ccccc2)CC1)c1ccccc1
outcome: inactive
CC50: > 100 µM

COc1cc(C(=O)OCCCN2CCOCC2)cc(OC)c1OC
outcome: inactive
CC50: > 100 µM

COc1cc(OC)cc(C(=O)OCCN2CCOCC2)c1
outcome: inactive
CC50: > 100 µM

COc1cc(OC)cc(C(=O)OCCCNCCNCCCOC(=O)c2cc(OC)cc(OC)c2)c1
CPE increase: 15.8% (inactive)
CC50: 32.1 µM

O=C(OCCCN1CCOCC1)c1ccc(F)cc1
outcome: inactive
CC50: > 100 µM

O=C(CNc1ccc(F)cc1)CN1CCCN(CC(=O)Nc2ccc(F)cc2)CC1
outcome: inactive
CC50: > 100 µM

CNCCN(C)CCOC(=O)c1cc(OC)cc(OC)c1
outcome: inactive
CC50: > 100 µM

O=C(NCCCN1CCN(CCCNC(=O)c2ccc3c(c2)OCO3)CC1)c1ccc2c(c1)OCO2
CPE increase: 14.4% (inactive)
CC50: > 100 µM

COc1cc(C(=O)NCCCN2CCCN(CCCNC(=O)c3cc(OC)c(OC)c(OC)c3)CC2)cc(OC)c1OC
CPE increase: 16% (inactive)
CC50: > 100 µM

COc1ccc(C(=O)OCCN2CCCN(C)CC2)cc1
CPE increase: 27.1% (inactive)
CC50: > 100 µM

CN1CCN(CCCOC(=O)c2ccc(F)cc2)CC1
outcome: inactive
CC50: > 100 µM

COc1cc(C(=O)OCCN2CCN(C)CC2)cc(OC)c1OC
outcome: inactive
CC50: > 100 µM

COc1cc(C(=O)OCCCN2CCN(C)CC2)cc(OC)c1OC
outcome: inactive
CC50: > 100 µM

COc1ccc(C(=O)OCCN2CCCN(Cc3ccccc3)CC2)cc1
outcome: inactive
CC50: > 100 µM

O=C(CN1CCCN(CC(=O)CN2C(=O)c3ccccc3C2=O)CC1)CN1C(=O)c2ccccc2C1=O
outcome: inactive
CC50: > 100 µM

O=C(OCCCN1CCN(CCCOC(=O)c2ccc(F)cc2)CC1)c1ccc(F)cc1
outcome: inactive
CC50: > 100 µM

O=C(OCCCN1CCCN(CCCOC(=O)c2ccc(F)cc2)CC1)c1ccc(F)cc1
outcome: inactive
CC50: 66.9 µM

COc1ccc(C(=O)OCCCN2CCCN(C)CC2)cc1
outcome: inactive
CC50: > 100 µM

CNCCN(C)CCCOC(=O)c1ccc(F)cc1
outcome: inactive
CC50: > 100 µM

COc1cc(C(=O)OCCN2CCCN(C)CC2)cc(OC)c1OC
outcome: inactive
CC50: > 100 µM

CN1CCCN(CCCOC(=O)c2ccccc2)CC1
outcome: inactive
CC50: > 100 µM

COc1ccc(C(=O)OCCCN2CCN(C)CC2)cc1
outcome: inactive
CC50: > 100 µM

COc1cc(NC(=O)Nc2cc(OC)c(OC)c(OC)c2)cc(OC)c1OC
outcome: inactive
CC50: > 100 µM

COc1cc(C(=O)N2CCCN(C(=O)c3cc(OC)c(OC)c(OC)c3)CC2)cc(OC)c1OC
outcome: inactive
CC50: > 100 µM

COc1cc(NC(=O)N2CCCN(C(=O)Nc3cc(OC)c(OC)c(OC)c3)CC2)cc(OC)c1OC
CPE increase: 24.5% (inactive)
CC50: > 100 µM

CN1CCN(CCCOC(=O)c2ccccc2)CC1
outcome: inactive
CC50: > 100 µM

COc1ccc(N2C(=O)CC(N3CCCN(C4CC(=O)N(c5ccc(OC)cc5)C4=O)CC3)C2=O)cc1 (configuration not stated)
outcome: inactive
CC50: > 100 µM

COc1cc(C(=O)OCCN2CCCN(Cc3ccccc3)CC2)cc(OC)c1OC
outcome: inactive
CC50: > 100 µM

COc1ccc(C(=O)OCCN2CCCN(CCOC(=O)c3ccc(OC)cc3)CC2)cc1
outcome: inactive
CC50: > 100 µM

COc1cc(C(=O)OCCCN2CCCN(C(=O)c3ccccc3)CC2)cc(OC)c1OC
outcome: inactive
CC50: > 100 µM
